This passage reports CC50 results from PMC6792352, “Limited Chemical Structural Diversity Found to Modulate Thyroid Hormone Receptor in the Tox21 Chemical Library” (Environmental Health Perspectives, 2019).

Structures are written as SMILES. Where a name gives a salt, the structure may show the parent alone. Positions of bridges follow the written chain, without caps; N, C: chain ends. Residues, ends and D or L forms follow the SMILES beside them. Some results are limits rather than exact numbers.

Broadly, the CC50 is the concentration at which the toxic effect on the cells reaches its halfway point. Higher therefore signals better tolerance by the cells.

A short description of one data set: in vitro. As to conditions: rat, gh3-tre-luc cells, AC50 (uM) modified / 1000.
The molecule `CC[C@H]1OC(=O)[C@H](C)C(=O)[C@H](C)[C@@H](O[C@@H]2O[C@H](C)C[C@H](N(C)C)[C@H]2O)[C@](C)(OC)C[C@@H](C)C(=O)[C@H](C)[C@H]2N(CCCCn3cnc(-c4cccnc4)c3)C(=O)O[C@]12C` [Telithromycin] registered a CC50 at 24 h of more than 50 µM. Still for that read-out and setting: the value for `CCCc1nc2c(C)cc(-c3nc4ccccc4n3C)cc2n1Cc1ccc(-c2ccccc2C(=O)O)cc1` [Telmisartan] was more than 50 µM; that for `CC1CN(c2cc3c(cc2F)c(=O)c(C(=O)O)cn3-c2ccc(F)cc2F)CCN1` (stereo not shown) [Temafloxacin] was more than 50 µM; that for `CN1C(=O)C(O)N=C(c2ccccc2)c2cc(Cl)ccc21` (stereo not shown) [Temazepam] was more than 90 µM.

Molecule `CS(=O)(=O)c1ccc(C(=O)C2C(=O)CCCC2=O)c(Cl)c1COCC(F)(F)F` [Tembotrione] displayed a CC50 at 24 h of more than 90 µM. On the same count and under the same terms, the value for `CCOC(=O)[C@H](CCc1ccccc1)N[C@H]1CS[C@H](c2cccs2)CN(CC(=O)O)C1=O` [Temocapril hydrochloride] was more than 50 µM; that for `Cn1nnc2c(C(N)=O)ncn2c1=O` [Temozolomide] was more than 50 µM; that for `CO[C@H]1C[C@@H]2CC[C@@H](C)[C@@](O)(O2)C(=O)C(=O)N2CCCC[C@H]2C(=O)O[C@H]([C@H](C)C[C@@H]2CC[C@@H](OC(=O)C(C)(CO)CO)[C@H](OC)C2)CC(=O)[C@H](C)/C=C(\C)[C@@H](O)[C@@H](OC)C(=O)[C@H](C)C[C@H](C)/C=C/C=C/C=C/1C` [Temsirolimus] was more than 50 µM. `COc1ccc2[nH]c([S+]([O-])Cc3ncc(C)c(OC)c3C)nc2n1` (stereo not shown) [Tenatoprazole] gave a 50% cytotoxic concentration (CC50) at 24 h of 41.8 µM. This counts as double-digit micromolar.

`NC(=O)N1C(=O)/C(=C(\O)c2cccs2)c2cc(Cl)ccc21` [Tenidap] came in with a CC50 at 24 h of 41.8 µM. That is a double-digit micromolar value. Same read-out and setting: the value for `COc1cc([C@@H]2c3cc4c(cc3[C@@H](O[C@@H]3O[C@@H]5CO[C@@H](c6cccs6)O[C@H]5[C@H](O)[C@H]3O)[C@H]3COC(=O)[C@H]23)OCO4)cc(OC)c1O` [Teniposide] was 4.5 µM; that for `CC(C)OC(=O)OCOP(=O)(CO[C@H](C)Cn1cnc2c(N)ncnc21)OCOC(=O)OC(C)C` [Tenofovir disoproxil fumarate] was more than 50 µM; that for `O=C(Nc1ncc([N+](=O)[O-])s1)c1cccs1` [Tenonitrozole] was 30.4 µM. On the same count and under the same terms, the value for `CC(=O)Nc1ccc(NC(=S)NC(=O)c2ccc(C(C)(C)C)cc2)cc1` [Tenovin-1] was 7.56 µM; that for `CN1C(C(=O)Nc2ccccn2)=C(O)c2sccc2S1(=O)=O` [Tenoxicam] was more than 20 µM.

In the case of `O=C1/C(=C/c2cccs2)CCC/C1=C\c1cccs1` [Tenylidone], the CC50 at 24 h was more than 50 µM. Regarding `CC/C(=N\OC/C=C/Cl)C1=C(O)CC(C2CCOCC2)CC1=O` (stereo not shown) [Tepraloxydim], the CC50 at 24 h was more than 90 µM.

Consider `CC(=O)CC/C=C(\C)CC/C=C(\C)CC/C=C(\C)CCC=C(C)C` [Teprenone], for which the CC50 at 24 h was more than 50 µM.

Take `COc1cc2nc(N3CCN(C(=O)C4CCCO4)CC3)nc(N)c2cc1OC` (stereo not shown) [Terazosin hydrochloride]: the CC50 at 24 h is more than 50 µM. `Cc1[nH]c(=O)n(C(C)(C)C)c(=O)c1Cl` [Terbacil] gave a CC50 at 24 h of more than 90 µM. The same measure, in the same setting: the value for `CN(C/C=C/C#CC(C)(C)C)Cc1cccc2ccccc12` [Terbinafine] was 38.3 µM; that for `CC(C)(C)NCC(O)c1cc(O)cc(O)c1` (stereo not shown) [Terbutaline hemisulfate] was more than 50 µM.

`CCNc1nc(Cl)nc(NC(C)(C)C)n1` [Terbutylazine] returned a CC50 at 24 h of more than 90 µM. The same measure, in the same setting: for `O=C(O)c1ccc(C(=O)O)cc1` [Terephthalic acid] the value was more than 90 µM. Same read-out and setting: the value for `CCN(CC)C(=O)N[C@H]1C[C@@H]2c3cccc4[nH]cc(c34)C[C@H]2N(C)C1` [Terguride] was more than 50 µM. On the same count and under the same terms, the value for `NCCCC[C@H](NC(=O)[C@@H]1CCCN1C(=O)[C@@H]1CSSC[C@H](NC(=O)CNC(=O)CNC(=O)CN)C(=O)N[C@@H](Cc2ccc(O)cc2)C(=O)N[C@@H](Cc2ccccc2)C(=O)N[C@@H](CCC(N)=O)C(=O)N[C@@H](CC(N)=O)C(=O)N1)C(=O)NCC(N)=O` [Terlipressin] (H-GGGCYFQNCPKG-NH2; disulfide 4-9) was more than 50 µM; that for `CC(CC(c1ccccc1)c1ccccc1)NC(C)(C)C` (stereo not shown) [Terodiline hydrochloride] was 11 µM. In turn, `CC1(O)CCC(C(C)(C)O)CC1` (stereo not shown) [Terpin] registered a CC50 at 24 h of more than 50 µM.

Consider `CC1=CCC(=C(C)C)CC1` [Terpinolene], for which the CC50 at 24 h is more than 90 µM.

Regarding `CCO[C@@H](Cc1ccc(OCCc2ccc(OS(C)(=O)=O)cc2)cc1)C(=O)O` [Tesaglitazar], the CC50 at 24 h was more than 50 µM. The same measure, in the same setting: for `CCN(CC)CCOc1ccc(Cc2ccccc2)cc1` [Tesmilifene] the value was 10.9 µM. The same measure, in the same setting: the value for `CCCCCCCC[N+](CCCCCCCC)(CCCCCCCC)CCCCCCCC` [Tetra-N-octylammonium bromide] was 2.56 µM. On the same count and under the same terms, for `C=CCOc1c(Br)cc(C(C)(C)c2cc(Br)c(OCC=C)c(Br)c2)cc1Br` [Tetrabromobisphenol A diallyl ether] the value was more than 50 µM; for `CC(C)(c1cc(Br)c(OCC(Br)CBr)c(Br)c1)c1cc(Br)c(OCC(Br)CBr)c(Br)c1` (stereo not shown) [Tetrabromobisphenol A-bis(2,3-dibromopropyl ether)], more than 50 µM; for `CCOC(=O)c1ccccc1C(=C1C=C(Br)C(=O)C(Br)=C1)c1cc(Br)c(O)c(Br)c1` [Tetrabromophenolphthalein ethyl ester], 42.7 µM.

`O=C1OC(=O)c2c(Br)c(Br)c(Br)c(Br)c21` [Tetrabromophthalic anhydride] yielded a CC50 at 24 h of more than 90 µM. Take `CCCC[N+](CCCC)(CCCC)CCCC` [Tetrabutylammonium bromide]: the CC50 at 24 h was more than 90 µM.

Take `CCCC[P+](CCCC)(CCCC)CCCC` [Tetrabutylphosphonium bromide]: the CC50 at 24 h was more than 90 µM. Same read-out and setting: the value for `CCCCN(CCCC)C(=S)SSC(=S)N(CCCC)CCCC` [Tetrabutylthiuram disulfide] was more than 90 µM; that for `CCCCNc1ccc(C(=O)OCCN(C)C)cc1` [Tetracaine hydrochloride] was more than 20 µM. On the same count and under the same terms, the value for `ClC1=C(Cl)C1(Cl)Cl` [Tetrachlorocyclopropene] was more than 90 µM; that for `O=C1OC(=O)c2c(Cl)c(Cl)c(Cl)c(Cl)c21` [Tetrachlorophthalic anhydride] was more than 90 µM; that for `Clc1sc(Cl)c(Cl)c1Cl` [Tetrachlorothiophene] was more than 90 µM.

Still in this data set, the particulars now being: rat, gh3-tre-luc cells, AC50 (uM) modified / 1000, Tox21_110001=Tox21_110330; viability, 1 nM T3 present, 24 h.
Take `CCC(=O)O[C@H]1CC[C@H]2[C@@H]3CCC4=CC(=O)CC[C@]4(C)[C@H]3CC[C@]12C` [Testosterone propionate]: the CC50 at 24 h was more than 20 µM.

Staying with this data set, now noted: rat, gh3-tre-luc cells, AC50 (uM) modified / 1000, Tox21_110001=Tox21_111576; viability, 1 nM T3 present, 24 h.
As for `C[C@]12C=CC(=O)C=C1CC[C@@H]1[C@@H]2CC[C@]2(C)OC(=O)CC[C@@H]12` [Testolactone], the CC50 at 24 h is more than 50 µM.

The data set is the same for the next values; noted with them: rat, gh3-tre-luc cells, AC50 (uM) modified / 1000, Tox21_110001=Tox21_111833; viability, 1 nM T3 present, 24 h.
`c1csc(C2(N3CCCCC3)CCCCC2)c1` [Tenocyclidine] had a 50% cytotoxic concentration (CC50) at 24 h of more than 50 µM.

Still in this data set, the particulars now being: rat, gh3-tre-luc cells, AC50 (uM) modified / 1000, Tox21_110001=Tox21_111863; viability, 1 nM T3 present, 24 h.
The molecule `CCCCCCCCCC(=O)O[C@H]1CC[C@H]2[C@@H]3CCC4=CC(=O)CC[C@]4(C)[C@H]3CC[C@]12C` [Testosterone decanoate] registered a CC50 at 24 h of more than 50 µM.

The same data set, now with this note: rat, gh3-tre-luc cells, AC50 (uM) modified / 1000, Tox21_110001=Tox21_112075; viability, 1 nM T3 present, 24 h.
Molecule `COP(=S)(OC)Oc1ccc(Sc2ccc(OP(=S)(OC)OC)cc2)cc1` [Temephos] returned a CC50 at 24 h of more than 50 µM.

The same data set, now with this note: rat, gh3-tre-luc cells, AC50 (uM) modified / 1000, Tox21_110001=Tox21_112669; viability, 1 nM T3 present, 24 h.
In turn, `CC(C)CCC(=O)O[C@H]1CC[C@H]2[C@@H]3CCC4=CC(=O)CC[C@]4(C)[C@H]3CC[C@]12C` [Testosterone isocaproate] came in with a CC50 at 24 h of 35.3 µM.

Staying with this data set, now noted: rat, gh3-tre-luc cells, AC50 (uM) modified / 1000, Tox21_110001=Tox21_113116; viability, 1 nM T3 present, 24 h.
The molecule `C[C@]12CC[C@H]3[C@@H](CCC4=CC(=O)CC[C@@]43C)[C@@H]1CC[C@@H]2OC(=O)CCc1ccccc1` [Testosterone 17-phenylpropionate] came in with a CC50 at 24 h of more than 90 µM.

The same data set, now with this note: rat, gh3-tre-luc cells, AC50 (uM) modified / 1000, Tox21_110001=Tox21_113529; viability, 1 nM T3 present, 24 h.
With `CC(N)Cc1ccc2c(c1)OCO2` (stereo not shown) [Tenamfetamine hydrochloride], the CC50 at 24 h was more than 50 µM.

The same data set, now with this note: rat, gh3-tre-luc cells, AC50 (uM) modified / 1000, Tox21_110001=Tox21_200092; viability, 1 nM T3 present, 24 h.
For the molecule `COP(=O)(OC)OC(=CCl)c1cc(Cl)c(Cl)cc1Cl` [Tetrachlorovinphos], the CC50 at 24 h was more than 100 µM.

Still in this data set, the particulars now being: rat, gh3-tre-luc cells, AC50 (uM) modified / 1000, Tox21_110001=Tox21_200689; viability, 1 nM T3 present, 24 h.
In turn, `C[C@]12CC[C@H]3[C@@H](CCC4=CC(=O)CC[C@@]43C)[C@@H]1CC[C@@H]2O` [Testosterone] gave a 50% cytotoxic concentration (CC50) at 24 h of more than 90 µM.

The same data set, now with this note: rat, gh3-tre-luc cells, AC50 (uM) modified / 1000, Tox21_110001=Tox21_201196; viability, 1 nM T3 present, 24 h.
The molecule `ClC(Cl)=C(Cl)Cl` [Tetrachloroethylene] had a CC50 at 24 h of more than 90 µM.

The same data set, now with this note: rat, gh3-tre-luc cells, AC50 (uM) modified / 1000, Tox21_110001=Tox21_201634; viability, 1 nM T3 present, 24 h.
The molecule `CCOP(=S)(OCC)SCSC(C)(C)C` [Terbufos] showed a CC50 at 24 h of more than 90 µM.

The same data set, now with this note: rat, gh3-tre-luc cells, AC50 (uM) modified / 1000, Tox21_110001=Tox21_301778; viability, 1 nM T3 present, 24 h.
Molecule `COP(=S)(OC)Oc1ccc(Sc2ccc(OP(=S)(OC)OC)cc2)cc1` [Temephos] came in with a CC50 at 24 h of more than 90 µM.

The same data set, now with this note: rat, gh3-tre-luc cells, AC50 (uM) modified / 1000, Tox21_110001=Tox21_302210; viability, 1 nM T3 present, 24 h.
`CNC(=O)Oc1c(C(C)(C)C)cc(C)cc1C(C)(C)C` [Terbucarb] showed a CC50 at 24 h of more than 90 µM.

Still in this data set, the particulars now being: rat, gh3-tre-luc cells, AC50 (uM) modified / 1000, Tox21_110001=Tox21_302270; viability, 1 nM T3 present, 24 h.
As to `CCC(=O)O[C@H]1CC[C@H]2[C@@H]3CCC4=CC(=O)CC[C@]4(C)[C@H]3CC[C@]12C` [Testosterone propionate], it took 55 µM to reach half-maximal cytotoxicity (CC50 at 24 h). This lies in the double-digit micromolar range.
